# In paper PMC11404609, “Gut microbiota-mediated C-sulfonate metabolism impairs the bioavailability and anti-cholestatic efficacy of andrographolide” (Gut Microbes, 2024):
# Columns and labels:
# [1] = tested on: D. piger; assay type: in vitro ADME, Desulfovibrio piger
# Procedure: The cecum contents from mice were collected and mixed with sterilized anaerobic medium in a ratio of 1.0 g to 10 mL, with gentle agitation. After filtered, the mixed medium containing the intestinal flora was placed in an anaerobic environment and preincubated at 37°C for 30 min before use. Mixed medium with or without APS reductase inhibitor bromocriptine mesylate (20 μg/mL) was incubated with AP (10 μg/mL), while autoclaved mixed medium without APS reductase inhibitor served as the control. Incubation was performed in a shaking incubator at 37°C for 6 h, with strict maintenance of anaerobic condition throughout the process.[44] Similarly, D. piger (0.2 mL, 1 × 10^8 CFU/mL) with or without inhibitor, was incubated with AP for 0, 3, 6, and 12 h, with autoclaved D. piger without inhibitor serving as the control. […] And then samples were analyzed by UPLC-MS/MS to detect the concentrations of AP and APM. Concentrations of APS reductase and HSO3^− were also determined at the end of incubation.
# For the determination of APS reductase concentration, the supernatant from mouse cecum contents and the D. piger strain were assessed using microorganism APS reductase elisa assay kit (Shanghai Senxingyan Biotechnology Co., Ltd., China), following the instructions provided with the kit. […] Subsequently, the absorbance of the resulting solutions was measured at a wavelength of 560 nm after 40 min.
# [2] = tested on: FXR; assay: FXR expression in liver (RNA sequencing, qPCR, Western blot); assay type: in vivo, mice
# Procedure: RNA in liver tissue was isolated from mice treated with ANIT and ANIT+AP (200 mg/kg, i.p.) and purified by TRIzol (Invitrogen, CA). The isolated RNA was quantified using Qubit 2.0 (Thermo Fisher Scientific, USA) following the manufacturer’s protocol. Libraries were prepared using the NEBNext® UltraTM RNA Library Prep Kit for Illumina® (NEB, USA) and sequenced on a Novaseq 6000 (Illumina, USA) at Novogene’s deep sequencing facility. Mapped reads from each sample were assembled using StringTie (v1.3.3b) in a reference-based approach, and featureCounts was used to quantify mapped reads. Differential expression analysis of two conditions/groups was performed using the DESeq2 R package (1.20.0).
# Total RNA from frozen livers of Vehicle, AP (200 mg/kg, i.p.), ANIT (50 mg/kg), and ANIT+AP (200 mg/kg, i.p.) groups was extracted using the Animal Total RNA Isolation Kit (FOREGENE, China). cDNA was synthesized using a Color Reverse Transcription Kit (EZBioscience, Roseville, CA, USA). qPCR was performed using SYBR green/Rox qPCR master mix (EZBioscience, Roseville, CA, USA), according to the manufacturer’s instruction. The expression of target genes was normalized to β-actin, and fold changes were calculated using 2^–ΔΔCT method. For bacterial identification, genomic DNA of fecal flora was isolated using the TIANamp Stool DNA Kit (TIANGEN, Beijing, China) and qPCR was performed. […]
structure (smiles),measurement,setting,value
"C=C1CC[C@@H]2[C@](C)(CO)[C@H](O)CC[C@@]2(C)[C@@H]1C/C=C1/C(=O)OC[C@H]1O [AP, Andrographolide]",metabolism of AP into APM by D. piger in vitro,[1],time-dependent ability to metabolize AP into APM
same,expression of Fxr (Nr1h4) by RNA-sequencing,"[2]; ANIT+AP (200 mg/kg, i.p.) vs ANIT",significant upregulation
same,FXR expression by qPCR and Western blot,"[2]; after AP treatment (200 mg/kg, i.p.)",upregulation of FXR expression
